Experimental findings from ChEMBL document CHEMBL1201862, “PubChem BioAssay data set” (2004) are described below.

Molecules are shown by their SMILES.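 Dose response: 5 concentrations. Exposure: 48 h. Format: 96-well plates. Endpoint: linear interpolation; highest concentration if not reached. Abbreviation: GI50, concentration required for 50% inhibition of growth.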 Activity calls are given as the source filed them. Rule as the data show it: active = GI50 up to about 1.1 µM and inactive = higher.

Test systems include CAKI-1; COLO 205; HCC 2998; HCT-15; HL-60; KM12; M14; MDA-MB-231; MOLT-4; NCI-H522; NCI/ADR-RES; SF-539; SK-MEL-28; SN12C; SNB-19; SNB-75; SW-620; T47D; UACC-62; SR.
Test in all cases: growth of human tumour cells (NCI), 48 h

Take `O=C1/C(=C\c2cccc(Oc3ccccc3)c2)SC(c2ccccc2)N1c1cc(Cl)ccc1Cl` (stereo not given): the GI50 in the assay with CAKI-1 was 69.2 µM (inactive); in the assay with COLO 205, 53.5 µM (inactive); in the assay with HCC 2998, 37.2 µM (inactive); with HCT-15, 35.2 µM; in the assay with HL-60 it was 15.1 µM (inactive); with KM12, 18.2 µM (inactive). The GI50 was 30.1 µM (inactive) in the assay on M14; 32.4 µM (inactive) in the assay with MDA-MB-231; 10.4 µM (inactive) with MOLT-4; 21 µM (inactive) in the assay on NCI-H522; 42.6 µM (inactive) with NCI/ADR-RES; 24.3 µM (inactive) in the assay with SF-539. In addition, the GI50 in the assay with SK-MEL-28 was 37.1 µM (inactive); in the assay on SN12C, 18.7 µM (inactive); in the assay on SNB-19, 43.4 µM (inactive); with SNB-75, > 100 µM (inactive); in the assay on SW-620 it was 19 µM (inactive); with T47D it was 28.4 µM (inactive). Also, in the assay with UACC-62, the GI50 was 31.4 µM (inactive).

Regarding `CCCNC(=O)OCc1c(COC(=O)NCCC)c(-c2ccc(Cl)c(Cl)c2)n2c1CCC2`, the GI50 in the assay with CAKI-1 is 1.72 µM (inactive); with COLO 205, 3.64 µM (inactive); with HCT-15 it was 4.18 µM; in the assay with HL-60, 2.64 µM (inactive); in the assay with KM12, 10.7 µM (inactive); with M14, 10.6 µM (inactive). The GI50 in the assay with MDA-MB-231 was 4.84 µM (inactive); in the assay on MOLT-4, 3.11 µM (inactive); with NCI-H522, 1.16 µM (inactive); in the assay on NCI/ADR-RES, 3.89 µM (inactive); with SF-539 it was 3 µM (inactive); in the assay on SN12C, 3.11 µM (inactive). In addition, the GI50 was 8.93 µM (inactive) with SNB-19, 4.63 µM (inactive) in the assay on SW-620, 11.4 µM (inactive) in the assay with T47D and 2.8 µM (inactive) in the assay on UACC-62.

Regarding `CN(c1ccc(Cl)cc1)S(=O)(=O)c1ccc([N+](=O)[O-])cc1`, the GI50 is > 100 µM (inactive) in the assay with CAKI-1; > 100 µM (inactive) with COLO 205; > 100 µM (inactive) with HCC 2998; > 100 µM with HCT-15; 59.4 µM (inactive) in the assay with HL-60; > 100 µM (inactive) in the assay on KM12. The GI50 in the assay with M14, in the assay on MDA-MB-231, with MOLT-4, with NCI-H522, with NCI/ADR-RES and in the assay on SF-539 was > 100 µM (inactive) each time. Also, the GI50 in the assay on SK-MEL-28, in the assay with SN12C, with SNB-19, in the assay with SNB-75, with SW-620 and in the assay on T47D was > 100 µM (inactive) each time. Further, in the assay on UACC-62, the GI50 is > 100 µM (inactive).

Turning to `Cc1cc2nc3c(C#N)c4c(c(Nc5ccc(Cl)cc5)n3c2cc1C)CCC4`, the GI50 with CAKI-1 is 20.5 µM (inactive); with COLO 205, 25.2 µM (inactive); with HCT-15 it was 18.8 µM; in the assay on KM12, 32.9 µM (inactive); with MDA-MB-231, 20.8 µM (inactive); in the assay on MOLT-4, 6.03 µM (inactive). Moreover, the GI50 with NCI-H522 is 13.6 µM (inactive); in the assay with NCI/ADR-RES, 22.6 µM (inactive); in the assay on SF-539, 27.1 µM (inactive); with SK-MEL-28, 22.1 µM (inactive); in the assay on SN12C it was 19.4 µM (inactive); with SNB-75, 30.5 µM (inactive). The GI50 in the assay on SW-620 was 17.9 µM (inactive); with T47D it was 30.5 µM (inactive).

Take `CC(C)(C)OC(=O)CC(NC(=O)OC(C)(C)C)C(=O)NC(C(=O)O)C(O)c1ccccc1` (stereo not given): the GI50 in the assay with CAKI-1 was > 100 µM (inactive); in the assay on COLO 205, > 100 µM (inactive); in the assay on HCC 2998 it was 14.3 µM (inactive); in the assay with HCT-15, > 100 µM; in the assay on KM12 it was 97.7 µM (inactive); with M14, > 100 µM (inactive). In addition, the GI50 is 65.2 µM (inactive) in the assay on MDA-MB-231; 32.4 µM (inactive) with MOLT-4; > 100 µM (inactive) with NCI-H522; > 100 µM (inactive) in the assay on NCI/ADR-RES; > 100 µM (inactive) in the assay with SF-539; > 100 µM (inactive) in the assay on SK-MEL-28. Further, the GI50 with SNB-19 is > 100 µM (inactive); in the assay with SNB-75, > 100 µM (inactive); in the assay on SW-620, 40.3 µM (inactive); with T47D, 80.9 µM (inactive); in the assay with UACC-62 it was 37.5 µM (inactive).

Consider `COc1ccc(/C=C/C(=N/NC(=O)N/N=C(/C=C/c2ccc(OC)cc2)C(C)(C)CN2CCCCC2)C(C)(C)CN2CCCCC2)cc1`, for which the GI50 in the assay with CAKI-1 was 1.83 µM (inactive); in the assay with COLO 205, 1.65 µM (inactive); with HCC 2998, 1.74 µM (inactive); with HCT-15, 3.12 µM; in the assay with HL-60 it was 1.5 µM (inactive); in the assay with KM12, 1.81 µM (inactive). The GI50 is 1.71 µM (inactive) with M14; 1.71 µM (inactive) with MOLT-4; 2.07 µM (inactive) with NCI-H522; 1.97 µM (inactive) with NCI/ADR-RES; 2.28 µM (inactive) in the assay with SF-539; 1.56 µM (inactive) in the assay with SK-MEL-28. Besides, the GI50 with SN12C was 2.7 µM (inactive); in the assay with SNB-19 it was 2.61 µM (inactive); in the assay with SNB-75, 1.37 µM (inactive); in the assay with SR, 0.234 µM (active); with SW-620, 2.11 µM (inactive); in the assay on T47D it was 1.99 µM (inactive).

On to `O=S(=O)(O)c1cc(/N=N/c2c(O)ccc3ccccc23)cc2c(S(=O)(=O)O)cccc12`, for which the GI50 in the assay on CAKI-1 was > 100 µM (inactive); in the assay on COLO 205, > 100 µM (inactive); in the assay with HCC 2998 it was > 100 µM (inactive); in the assay with HCT-15, > 100 µM; in the assay with HL-60, > 100 µM (inactive); in the assay with KM12 it was > 100 µM (inactive). Also, the GI50 in the assay with M14, in the assay on MDA-MB-231, in the assay on MOLT-4, with NCI-H522, in the assay on NCI/ADR-RES and in the assay with SF-539 was > 100 µM (inactive) each time. Also, the GI50 in the assay on SK-MEL-28, with SNB-19, with SNB-75, in the assay on SR, in the assay on SW-620 and in the assay with UACC-62 was > 100 µM (inactive) throughout.

As to `COc1ccc(C2=C(OC(C)=O)c3cccn3-c3ccccc3S2)cc1`, the GI50 was 4.55 µM (inactive) with CAKI-1; 2.7 µM (inactive) with COLO 205; 2.95 µM (inactive) in the assay on HCC 2998; 1.18 µM with HCT-15; 0.512 µM (active) in the assay on HL-60; 2.62 µM (inactive) with KM12. For the same compound, the GI50 is 5.68 µM (inactive) with M14; 0.728 µM (active) with MDA-MB-231; 4.06 µM (inactive) in the assay on MOLT-4; 3.66 µM (inactive) in the assay on SK-MEL-28; 1.29 µM (inactive) in the assay on SN12C; 2.41 µM (inactive) in the assay on SNB-75. Moreover, the GI50 in the assay on SR was 3.36 µM (inactive); with SW-620 it was 2.55 µM (inactive); in the assay on T47D, 5.9 µM (inactive); with UACC-62 it was 2.9 µM (inactive).

As for `CC(=O)N(C)c1ccc(Nc2ccnc3ccc4nn(C)nc4c23)cc1`, the GI50 in the assay on CAKI-1 is 12.2 µM (inactive); with COLO 205, 19.1 µM (inactive); in the assay on HCT-15, 21.5 µM; in the assay with HL-60, 18.4 µM (inactive); in the assay with KM12, 24.4 µM (inactive); in the assay with M14, 31.4 µM (inactive). Besides, the GI50 in the assay on MOLT-4 is 13.6 µM (inactive); with NCI-H522 it was 19 µM (inactive); in the assay with NCI/ADR-RES, 28.1 µM (inactive); with SF-539 it was 19.2 µM (inactive); in the assay with SK-MEL-28, 20.7 µM (inactive); in the assay with SN12C, 26 µM (inactive). Further, the GI50 in the assay on SNB-19 is 37.3 µM (inactive); with SNB-75 it was 21.3 µM (inactive); with SR, 25.6 µM (inactive); in the assay on SW-620 it was 35.3 µM (inactive); with T47D it was 20.1 µM (inactive); with UACC-62, 16.1 µM (inactive).

Consider `CCCNC(=O)NNC(=O)c1c[nH]c2nc(C)ccc2c1=O`, for which the GI50 in the assay with CAKI-1 is > 100 µM (inactive); in the assay on COLO 205, > 100 µM (inactive); in the assay on HCT-15 it was > 100 µM; in the assay with HL-60 it was > 100 µM (inactive); in the assay with KM12 it was > 100 µM (inactive); in the assay with M14, > 100 µM (inactive). The GI50 with MDA-MB-231, in the assay on MOLT-4, in the assay with NCI-H522, with NCI/ADR-RES, with SK-MEL-28 and with SN12C was > 100 µM (inactive) each time. For the same compound, the GI50 in the assay on SNB-19, with SW-620, in the assay on T47D and in the assay on UACC-62 was > 100 µM (inactive) in each case.

Consider `N#CC[C@@H](O)COc1ccccc1`, for which the GI50 was > 100 µM (inactive) in the assay with CAKI-1; > 100 µM (inactive) with COLO 205; > 100 µM (inactive) in the assay with HCC 2998; > 100 µM in the assay on HCT-15; > 100 µM (inactive) in the assay with HL-60; > 100 µM (inactive) in the assay with KM12. Moreover, the GI50 with M14, in the assay with MDA-MB-231, in the assay on MOLT-4, with NCI-H522, in the assay with SF-539 and in the assay with SK-MEL-28 was > 100 µM (inactive) in each case. In addition, the GI50 in the assay with SN12C, in the assay on SNB-19, in the assay with SNB-75, with SR, with SW-620 and in the assay on T47D was > 100 µM (inactive) throughout. Moreover, the GI50 in the assay on UACC-62 is > 100 µM (inactive).
